What was measured:
[1] = Residual PAA and HP in corn mash by Hach DPD total chlorine test; format: physicochemical
Experimental: At the point of injection, the mash temperature was 140° F. and the mash flow rate was 110 gpm. The pumps used to pump both the HP and PAA solution were Prominent diaphragm pumps fitted with Teflon liquid ends. The dose of the PAA solution was 15 ppm (as PAA) and the dose of the HP was 40 ppm (as peroxide). However, the PAA solution and HP were fed for only 15 hours of the 23 hour fermentor fill time making the overall dose 9.8 ppm of PAA solution and 26 ppm of HP.
Samples were taken every hour at the mash cooler exit and fermentation tank. The samples were tested using a Hach DPD total chlorine test. Three (3) ml of sample was added to a test tube, then one DPD powder pillow was added to the sample. […] Peracetic acid (PAA) concentration was estimated based on the hue of pink color after 30 seconds.

yeast = experiment: Full scale ethanol plant trial: alcohol production, yeast counts/viability, glycerol; format: cell-based, Saccaromyces cerevisiae
Experimental: A number of full scale trials were conducted in order to evaluate the efficacy of introducing peracetic acid and hydrogen peroxide into a fermentation system was evaluated and compared to the use of conventional antibiotics. The ethanol plant tested is a 20 MGPY plant having a modified Delta T design. The plant process flow is as follows: • Corn mash cooler stage one→Corn mash cooler stage 2→fermenter←→fermenter cooler→distillation The corn mash enters the stage one cooler at 180° F. and is cooled to 140° F. It then enters the stage 2 cooler and is cooled to 90° F. Flow through the cooler is 110 gpm. From the stage 2 cooler the mash is sent to the fermenter. Once in the fermenter, the corn mash is re-circulated through a plate and frame mash cooler. When the fermenter has been filled for 30 minutes, yeast is added to the recirculating corn mash. The fermenter takes about 23 hours to fill. Once filled, fermentation begins to accelerate releasing heat which is dissipated in the fermenter cooler. The fermenter mash is sent to distillation about 56 hours after the fermenter is filled. System parameters are as follows:
During fermentation, carbohydrates, ethanol, and organic acids are monitored in order to insure that the fermentation process is occurring normally and to insure that undesirable bacteria are kept under control. […]

In the case of `OO` [HP, hydrogen peroxide], the “HP in fermenter corn mash” value ([1]; after 3 hours) is reported as “not detectable”.
For `CC(=O)OO` [PAA, peracetic acid], the “PAA in fermenter corn mash” value ([1]; after two hours) was “not detectable” and the “PAA in fermenter corn mash” value ([1]; up to two hours into filling) was “positive”.
For Virginiamycin [antibiotics], the “glycerol levels (indicative of stress on the yeast)” value (yeast) was “tended to increase”.

Reference: patent US9790520B2, “Antimicrobial method for fermentation processes” (DeLaval Holding AB, priority 2010, dated 2017)
